The assay deals with Endogenous Huntingtin Protein. Kind of assay: Endogenous Huntingtin Protein Assay (MSD plates, MW1 or MAB2166 capture antibody). In kind it is cell-based. The following applies: Table 1. In a few lines: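 Sandwich MSD immunoassay: plates were coated overnight at 4° C with MW1 (expanded polyQ) or MAB2166 capture antibody at 1 μg/mL, then blocked with 5% BSA. Samples were bound overnight at 4° C, followed by rabbit mAb #5656S and SULFO-TAG anti-rabbit detection, each at 0.25 μg/mL for 1 h at room temperature. Signal was read by electrochemiluminescence.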
For orientation: IC50 means the point on the concentration scale where inhibition reaches its midpoint. A high value points to weaker potency in that assay. For `Cc1cn(-c2cnc(-c3nc4sc(N(C)[C@H]5C[C@]6(C)CC[C@](C)(C5)N6)nc4s3)cn2)cn1` [Compound 88, N-[(1R,3s,5S)-1,5-dimethyl-8-azabicyclo[3.2.1]octan-3-yl]-N-methyl-5-[5-(4-methyl-1H-imidazol-1-yl)pyrazin-2-yl][1,3]thiazolo[5,4-d][1,3]thiazol-2-amine], the half-inhibitory concentration (IC50) was ≤ 100 nM.

With `CN(c1nc2sc(-c3cnc(-c4cnn(C)c4)cn3)nc2s1)[C@H]1C[C@]2(C)CC[C@](C)(C1)N2` [Compound 89, N-[(1R,3s,5S)-1,5-dimethyl-8-azabicyclo[3.2.1]octan-3-yl]-N-methyl-5-[5-(1-methyl-1H-pyrazol-4-yl)pyrazin-2-yl][1,3]thiazolo[5,4-d][1,3]thiazol-2-amine], the IC50 was ≤ 100 nM.

Regarding `CCn1cc(-c2cnc(-c3nc4sc(N(C)[C@H]5CCN[C@H](C)C5)nc4s3)c3[nH]ccc23)cn1` [Compound 90, 5-[4-(1-ethyl-1H-pyrazol-4-yl)-1H-pyrrolo[2,3-c]pyridin-7-yl]-N-methyl-N-[(2R,4S)-2-methylpiperidin-4-yl][1,3]thiazolo[5,4-d][1,3]thiazol-2-amine], the IC50 was ≤ 100 nM.

On to `C[C@@H]1C[C@@H](N(C)c2nc3sc(-c4ncc(-c5cnn(C)c5)c5cc[nH]c45)nc3s2)CCN1` [Compound 91, N-methyl-N-[(2R,4S)-2-methylpiperidin-4-yl]-5-[4-(1-methyl-1H-pyrazol-4-yl)-1H-pyrrolo[2,3-c]pyridin-7-yl][1,3]thiazolo[5,4-d][1,3]thiazol-2-amine], for which the IC50 was ≤ 100 nM.

Consider `CN(c1nc2sc(-c3cnc(-c4ccn(C)c(=O)c4)cn3)nc2s1)[C@H]1C[C@]2(C)CC[C@](C)(C1)N2` [Compound 92, 4-[5-(5-{[(1R,3s,5S)-1,5-dimethyl-8-azabicyclo[3.2.1]octan-3-yl](methyl)amino}[1,3]thiazolo[5,4-d][1,3]thiazol-2-yl)pyrazin-2-yl]-1-methylpyridin-2(1H)-one], for which the IC50 was ≤ 100 nM.

Regarding `C[C@@H]1C[C@@H](N(C)c2nc3sc(-c4cnc(-c5cn[nH]c5)cn4)nc3s2)CCN1` [Compound 93, N-methyl-N-[(2R,4S)-2-methylpiperidin-4-yl]-5-[5-(1H-pyrazol-4-yl)pyrazin-2-yl][1,3]thiazolo[5,4-d][1,3]thiazol-2-amine], the IC50 is ≤ 100 nM.

As to `CN(c1nc2sc(-c3cnc(-c4cnn(C)c4)cn3)nc2s1)C1CC(C)(C)NC(C)(C)C1` [Compound 94, N-methyl-5-[5-(1-methyl-1H-pyrazol-4-yl)pyrazin-2-yl]-N-(2,2,6,6-tetramethylpiperidin-4-yl)[1,3]thiazolo[5,4-d][1,3]thiazol-2-amine], the IC50 was ≤ 100 nM.

As to `C[C@H]1C[C@@H](N(C)c2nc3sc(-c4ncc(-c5cnn(C)c5)c5cc[nH]c45)nc3s2)CCN1` [Compound 95, N-methyl-N-[(2S,4S)-2-methylpiperidin-4-yl]-5-[4-(1-methyl-1H-pyrazol-4-yl)-1H-pyrrolo[2,3-c]pyridin-7-yl][1,3]thiazolo[5,4-d][1,3]thiazol-2-amine], the IC50 was ≤ 100 nM.

For the compound `CN1CCCC2(CCN2c2nc3sc(-c4ncc(-c5cn[nH]c5)c5cc[nH]c45)nc3s2)C1` (stereo not shown) [Compound 96, 7-[5-(6-methyl-1,6-diazaspiro[3.5]nonan-1-yl)[1,3]thiazolo[5,4-d][1,3]thiazol-2-yl]-4-(1H-pyrazol-4-yl)-1H-pyrrolo[2,3-c]pyridine], the IC50 is ≤ 100 nM.

As to `C[C@H]1C[C@@H](N(C)c2nc3sc(-c4ccc(-c5cn[nH]c5)c5cc[nH]c45)nc3s2)CCN1` [Compound 97, N-methyl-N-[(2S,4S)-2-methylpiperidin-4-yl]-5-[4-(1H-pyrazol-4-yl)-1H-indol-7-yl][1,3]thiazolo[5,4-d][1,3]thiazol-2-amine], the IC50 is ≤ 100 nM.

For the compound `C[C@H]1C[C@@H](N(C)c2nc3sc(-c4ncc(-c5cn[nH]c5)c5cc[nH]c45)nc3s2)CCN1` [Compound 98, N-methyl-N-[(2S,4S)-2-methylpiperidin-4-yl]-5-[4-(1H-pyrazol-4-yl)-1H-pyrrolo[2,3-c]pyridin-7-yl][1,3]thiazolo[5,4-d][1,3]thiazol-2-amine], the IC50 is ≤ 100 nM.

In turn, `C[C@H]1C[C@@H](N(C)c2nc3sc(-c4cnc(-c5cn[nH]c5)cn4)nc3s2)CCN1` [Compound 99, N-methyl-N-[(2S,4S)-2-methylpiperidin-4-yl]-5-[5-(1H-pyrazol-4-yl)pyrazin-2-yl][1,3]thiazolo[5,4-d][1,3]thiazol-2-amine] gave an IC50 of 500 to 1000 nM.

As to `CN(c1nc2sc(-c3ncc(-c4cn[nH]c4)nn3)nc2s1)C1CC(C)(C)NC(C)(C)C1` [Compound 100, N-methyl-5-[6-(1H-pyrazol-4-yl)-1,2,4-triazin-3-yl]-N-(2,2,6,6-tetramethylpiperidin-4-yl)[1,3]thiazolo[5,4-d][1,3]thiazol-2-amine], the IC50 is ≤ 100 nM.

For the compound `CN(c1nc2sc(-c3ncc(-c4cn[nH]c4)n4ccnc34)nc2s1)C1CCNCC1` [Compound 101, N-methyl-N-(piperidin-4-yl)-5-[5-(1H-pyrazol-4-yl)imidazo[1,2-a]pyrazin-8-yl][1,3]thiazolo[5,4-d][1,3]thiazol-2-amine], the IC50 lay in the range of 1000 to 3000 nM.

Take `CN(c1nc2sc(-c3cnc(-n4ccnc4)cn3)nc2s1)C1CC(C)(C)NC(C)(C)C1` [Compound 102, 5-[5-(1H-imidazol-1-yl)pyrazin-2-yl]-N-methyl-N-(2,2,6,6-tetramethylpiperidin-4-yl)[1,3]thiazolo[5,4-d][1,3]thiazol-2-amine]: the IC50 is ≤ 100 nM.

`CN(c1nc2sc(-c3cnc(-n4ccnc4)cn3)nc2s1)[C@H]1C[C@]2(C)CC[C@](C)(C1)N2` [Compound 103, N-[(1R,3s,5S)-1,5-dimethyl-8-azabicyclo[3.2.1]octan-3-yl]-5-[5-(1H-imidazol-1-yl)pyrazin-2-yl]-N-methyl[1,3]thiazolo[5,4-d][1,3]thiazol-2-amine]: the IC50 is ≤ 100 nM.

Take `CN(c1nc2sc(-c3cnc(-n4cccn4)cn3)nc2s1)[C@H]1C[C@]2(C)CC[C@](C)(C1)N2` [Compound 104, N-[(1R,3s,5S)-1,5-dimethyl-8-azabicyclo[3.2.1]octan-3-yl]-N-methyl-5-[5-(1H-pyrazol-1-yl)pyrazin-2-yl][1,3]thiazolo[5,4-d][1,3]thiazol-2-amine]: the IC50 was in the range of 500 to 1000 nM.

Turning to `CN(c1nc2sc(-c3cnc(-n4cccn4)cn3)nc2s1)C1CC(C)(C)NC(C)(C)C1` [Compound 105, N-methyl-5-[5-(1H-pyrazol-1-yl)pyrazin-2-yl]-N-(2,2,6,6-tetramethylpiperidin-4-yl)[1,3]thiazolo[5,4-d][1,3]thiazol-2-amine], the IC50 was in the range of 500 to 1000 nM.

With `CN(c1nc2sc(-c3ccc(-c4cn[nH]c4)c4cn[nH]c34)nc2s1)C1CC(C)(C)NC(C)(C)C1` [Compound 107, N-methyl-5-[4-(1H-pyrazol-4-yl)-1H-indazol-7-yl]-N-(2,2,6,6-tetramethylpiperidin-4-yl)[1,3]thiazolo[5,4-d][1,3]thiazol-2-amine], the IC50 is ≤ 100 nM.

In the case of `CC1CC(N(C)c2nc3sc(-c4ccc(-c5cn[nH]c5)c5cn[nH]c45)nc3s2)CCN1C` (stereo not shown) [Compound 108, N-(1,2-dimethylpiperidin-4-yl)-N-methyl-5-[4-(1H-pyrazol-4-yl)-1H-indazol-7-yl][1,3]thiazolo[5,4-d][1,3]thiazol-2-amine], the IC50 is ≤ 100 nM.

In the case of `C[C@H]1C[C@H](Oc2nc3sc(-c4ncc(-c5cn[nH]c5)c5cc[nH]c45)nc3s2)CCN1` [Compound 109, 7-(5-{[(2S,4R)-2-methylpiperidin-4-yl]oxy}[1,3]thiazolo[5,4-d][1,3]thiazol-2-yl)-4-(1H-pyrazol-4-yl)-1H-pyrrolo[2,3-c]pyridine], the IC50 is ≤ 100 nM.

As for `CN(c1nc2sc(-c3ccc(-c4cn[nH]c4)c4cn[nH]c34)nc2s1)[C@H]1C[C@]2(C)CC[C@](C)(C1)N2` [Compound 110, N-[(1R,3s,5S)-1,5-dimethyl-8-azabicyclo[3.2.1]octan-3-yl]-N-methyl-5-[4-(1H-pyrazol-4-yl)-1H-indazol-7-yl][1,3]thiazolo[5,4-d][1,3]thiazol-2-amine], the IC50 was ≤ 100 nM.

With `CN(c1nc2sc(-c3ccc(Br)c4cn[nH]c34)nc2s1)[C@H]1C[C@]2(C)CC[C@](C)(C1)N2` [Compound 111, 5-(4-bromo-1H-indazol-7-yl)-N-[(1R,3s,5S)-1,5-dimethyl-8-azabicyclo[3.2.1]octan-3-yl]-N-methyl[1,3]thiazolo[5,4-d][1,3]thiazol-2-amine], the IC50 is ≤ 100 nM.

In the case of `CC1CC(N(C)c2nc3sc(-c4ccc(-c5cn[nH]c5)c5nc[nH]c45)nc3s2)CCN1C` (stereo not shown) [Compound 112, N-(1,2-dimethylpiperidin-4-yl)-N-methyl-5-[4-(1H-pyrazol-4-yl)-1H-benzimidazol-7-yl][1,3]thiazolo[5,4-d][1,3]thiazol-2-amine], the IC50 was ≤ 100 nM.

`CN(c1nc2sc(-c3ncc(-c4cn[nH]c4)c4ccn(C)c34)nc2s1)C1CCNCC1` [Compound 113, N-methyl-5-[1-methyl-4-(1H-pyrazol-4-yl)-1H-pyrrolo[2,3-c]pyridin-7-yl]-N-(piperidin-4-yl)[1,3]thiazolo[5,4-d][1,3]thiazol-2-amine]: the IC50 was 100 to 500 nM.

For the compound `CN(c1nc2sc(-c3cnc(-c4cn[nH]c4)cn3)nc2s1)[C@H]1C[C@]2(C)CC[C@](C)(C1)N2C` [Compound 114, N-methyl-5-[5-(1H-pyrazol-4-yl)pyrazin-2-yl]-N-[(1R,3s,5S)-1,5,8-trimethyl-8-azabicyclo[3.2.1]octan-3-yl][1,3]thiazolo[5,4-d][1,3]thiazol-2-amine], the IC50 is ≤ 100 nM.

As for `CC1CC(N(C)c2nc3sc(-c4ncc(-c5cn[nH]c5)c5[nH]cnc45)nc3s2)CCN1C` (stereo not shown) [Compound 115, N-(1,2-dimethylpiperidin-4-yl)-N-methyl-5-[7-(1H-pyrazol-4-yl)-1H-imidazo[4,5-c]pyridin-4-yl][1,3]thiazolo[5,4-d][1,3]thiazol-2-amine], the IC50 is ≤ 100 nM.

Compound `CN(c1nc2sc(-c3cnc(Br)n4ccnc34)nc2s1)C1CCNCC1` [Compound 116, 5-(5-bromoimidazo[1,2-c]pyrimidin-8-yl)-N-methyl-N-(piperidin-4-yl)[1,3]thiazolo[5,4-d][1,3]thiazol-2-amine] came in with an IC50 of 500 to 1000 nM.

The values above are taken from patent publication US11685746B2, “Heteroaryl compounds for treating Huntington's disease” (PTC THERAPEUTICS, INC., priority 2018, dated 2023).
